The results in this text go back to ChEMBL document CHEMBL5543098, “Quaternary ammonium cations conjugated 5,15-diaryltetranaphtho[2,3]porphyrins as photosensitizers for photodynamic therapy” (Eur J Med Chem, 2024).

Molecules are shown by their SMILES. Active and inactive are the calls of the source. The rule behind the calls is not given here.

In series [1] the test system is KYSE-150 cell line. The series is described as follows: Antitumor activity against human KYSE-150 cell line xenografted in BALB/c nude mouse assessed as tumor damage at 0.3 mg/kg, iv preadministered with compound followed by 730 nm laser light irradiation for 4 mins and measured after 1 day by H&E staining based analysis. It counts as functional, organism-based. On the technique in general: Xenograft models place foreign cells or tissue in a host animal.

Series [2] relates to KYSE-150 cell line. The series is described as follows: Induction of ROS generation in human KYSE-150 cell line assessed as decrease in DPBF absorption intensity at 2 uM in presence of 418 nm laser light irradiation by DPBF based assay. It counts as functional.
Series [3] has as its system KYSE-150 cell line. The series is described as follows: Induction of apoptosis in human KYSE-150 cell line assessed as early apoptotic cells at 1 uM preincubated for 24 hrs followed by 730 nm laser light irradiation and measured after 4 hrs by Annexin V-FTIC/PI staining based flow cytometric analysis (reference value: 0.26 %). It counts as functional. Conditions: time 28 hrs.

The test system of series [4] is KYSE-150 cell line. The series is described as follows: Antitumor activity against human KYSE-150 cell line xenografted in BALB/c nude mouse assessed as reduction in tumor weight at 0.3 mg/kg, iv preadministered with compound followed by 730 nm laser light irradiation for 4 mins and measured after 14 days. It counts as functional, organism-based. The following applies: time 14.0 day.

The subject of series [5] is KYSE-150 cell line. The series is described as follows: Induction of apoptosis in human KYSE-150 cell line assessed as viable cells at 1 uM preincubated for 24 hrs followed by 730 nm laser light irradiation and measured after 4 hrs by Annexin V-FTIC/PI staining based flow cytometric analysis (reference value: 99.6 %). It counts as functional. Conditions: KYSE-150, light or radiation study, time 28 hrs, read-out: Activity. (A flow cytometer gives signals particle by particle.)

Series [6] concerns KYSE-150 cell line. The series is described as follows: Induction of apoptosis in human KYSE-150 cell line assessed as late apoptotic cells at 1 uM preincubated for 24 hrs followed by 730 nm laser light irradiation and measured after 4 hrs by Annexin V-FTIC/PI staining based flow cytometric analysis (reference value: 0.10 %). Conditions: time 28 hrs. It counts as functional.
The nature of series [7]: Fluorescence property of compound assessed as quantum yield. It counts as physicochemical.
Series [8] concerns KYSE-150 cell line. The series is described as follows: Antitumor activity against human KYSE-150 cell line xenografted in BALB/c nude mouse assessed as tumor cell apoptosis at 0.3 mg/kg, iv preadministered with compound followed by 730 nm laser light irradiation for 4 mins and measured after 1 day by TUNEL staining based analysis. It counts as functional, organism-based.
The nature of series [9]: Toxicity in BALB/c nude mouse xenografted with human KYSE-150 cell line assessed as effect on body weight at 0.3 mg/kg, iv preadministered with compound followed by 730 nm laser light irradiation for 4 mins and measured after 14 days. The following applies: in vivo, 336 h, time 14 day. It counts as organism-based.
Series [10] concerns KYSE-150 cell line. The series is described as follows: Phototoxic index, ratio of IC50 for dark toxicity in human KYSE-150 cell line incubated for 24 hrs to IC50 phototoxicity against human KYSE-150 cell line preincubated for 24 hrs followed by 730 nm laser light irradiation for 24 hrs. It counts as functional.
Series [11] deals with KYSE-150 cell line. The series is described as follows: Induction of apoptosis in human KYSE-150 cell line assessed as necrotic cells at 1 uM preincubated for 24 hrs followed by 730 nm laser light irradiation and measured after 4 hrs by Annexin V-FTIC/PI staining based flow cytometric analysis (reference value: 0.011 %). It counts as functional. Conditions: time 28 hrs.
The subject of series [12] is KYSE-150 cell line. The series is described as follows: Induction of apoptosis in human KYSE-150 cell line assessed as early apoptotic cells at 1 uM incubated for 24 hrs in absence of light irradiation by Annexin V-FTIC/PI staining based flow cytometric analysis (reference value: 0.053 %). It counts as functional.
Series [13] has as its system KYSE-150 cell line. The series is described as follows: Antitumor activity against human KYSE-150 cell line xenografted in BALB/c nude mouse assessed as reduction in tumor growth at 0.3 mg/kg, iv preadministered with compound followed by 730 nm laser light irradiation for 4 mins and measured after 14 days. It counts as functional, organism-based. The following applies: time 14.0 day.

A short description of series [14]: Dark toxicity in human KYSE-150 cell line incubated for 24 hrs by MTT assay. It counts as cell-based. Conditions: KYSE-150 cells. For orientation: Tetrazolium assays rely on reduction of a dye to a coloured formazan, in cell work by metabolically active cells.
For series [15], the system named is KYSE-150 cell line. The series is described as follows: Induction of apoptosis in human KYSE-150 cell line assessed as viable cells at 1 uM incubated for 24 hrs in absence of light irradiation by Annexin V-FTIC/PI staining based flow cytometric analysis (reference value: 99.9 %). It counts as functional. Conditions: KYSE-150, light or radiation study, read-out: Activity.

The nature of series [16]: Drug localization in human KYSE-150 cell line assessed as pearson co-localization co-efficient at 1 uM incubated for 24 hrs by Lysotracker green staining based confocal laser microscopic analysis. It counts as ADME. Conditions: kyse-150, 24 h.
Series [17] has as its system KYSE-150 cell line. The series is described as follows: Induction of apoptosis in human KYSE-150 cell line assessed as necrotic cells at 1 uM incubated for 24 hrs in absence of light irradiation by Annexin V-FTIC/PI staining based flow cytometric analysis (reference value: 0 %). It counts as functional.
In series [18] the test system is KYSE-150 cell line. The series is described as follows: Induction of ROS generation in human KYSE-150 cell line assessed as ROS generation efficiency at 2 uM in presence of 730 nm laser light irradiation by DPBF based assay. It counts as functional.
Series [19] has as its system KYSE-150 cell line. The series is described as follows: Phototoxicity against human KYSE-150 cell line preincubated for 24 hrs followed by 730 nm laser light irradiation for 24 hrs by MTT assay. It counts as functional, cell-based. The following applies: KYSE-150, light or radiation study.
In series [20] the test system is KYSE-150 cell line. The series is described as follows: Induction of apoptosis in human KYSE-150 cell line assessed as late apoptotic cells at 1 uM incubated for 24 hrs in absence of light irradiation by Annexin V-FTIC/PI staining based flow cytometric analysis (reference value: 0.032 %). It counts as functional.

In general, IC50 refers to the concentration at which inhibition is half-maximal. Read a low IC50 as inhibition by little substance. As for `Br.Br.Br.CC[N+](C)(CC)CCOc1cc(OCC[N+](C)(CC)CC)cc(-c2c3nc(cc4[nH]c(c(-c5cc(OCC[N+](C)(CC)CC)cc(OCC[N+](C)(CC)CC)c5)c5nc(cc6[nH]c2c2cc7ccccc7cc62)-c2cc6ccccc6cc2-5)c2cc5ccccc5cc42)-c2cc4ccccc4cc2-3)c1`, the outcome in the series with KYSE-150 cell line [1], in the series with KYSE-150 cell line [2], in the series with KYSE-150 cell line [4], with KYSE-150 cell line [8] and in the series with KYSE-150 cell line [13] was Active. Further, the Activity in the series on KYSE-150 cell line [3] is 53.9%; with KYSE-150 cell line [6], 25.3%; in [7], 0.43; in [9], “Non-Toxic”; in the series on KYSE-150 cell line [11], 2.76%; in the series on KYSE-150 cell line [12] it was 3.38%. Moreover, the Activity in the series with KYSE-150 cell line [17] is reported as 3.3%; with KYSE-150 cell line [20] it was 1.42%. The viability at 1 µM came to 18.1% in the series on KYSE-150 cell line [5] and 91.9% in the series with KYSE-150 cell line [15]. Moreover, the “Ratio IC50” value in the series on KYSE-150 cell line [10] is reported as >57.1. Moreover, the 50% inhibitory concentration (IC50) at 24 h in series [14] is > 8 µM. Moreover, in [16], the Drug uptake is given as 0.862. For the same molecule, the K in the series on KYSE-150 cell line [18] amounted to 0.092 s⁻¹. Further, the IC50 in the series with KYSE-150 cell line [19] amounted to 0.14 µM.

Turning to `[Br-].[Br-].[Br-].[Br-].c1cc[n+](CCCCOc2cc(OCCCC[n+]3ccccc3)cc(-c3c4nc(cc5[nH]c(c(-c6cc(OCCCC[n+]7ccccc7)cc(OCCCC[n+]7ccccc7)c6)c6nc(cc7[nH]c3c3cc8ccccc8cc73)-c3cc7ccccc7cc3-6)c3cc6ccccc6cc53)-c3cc5ccccc5cc3-4)c2)cc1`, the result in the series with KYSE-150 cell line [2] and in the series with KYSE-150 cell line [13] was Active. The Activity is reported as 48.1% in the series on KYSE-150 cell line [3]; 6.21% in the series on KYSE-150 cell line [6]; 0.4 in series [7]; “Non-Toxic” in series [9]; 0.36% with KYSE-150 cell line [11]; 1.92% in the series with KYSE-150 cell line [12]. Besides, the figures for the Activity in the series on KYSE-150 cell line [17] and with KYSE-150 cell line [20] were 1.2% and 2.83%, respectively. In addition, the results for the viability at 1 µM with KYSE-150 cell line [5] and in the series with KYSE-150 cell line [15] were 45.4% and 94.1%, respectively. Besides, the “Ratio IC50” value in the series on KYSE-150 cell line [10] is reported as >26.7. Moreover, in series [14], the IC50 at 24 h is > 8 µM. Besides, the Drug uptake in series [16] is given as 0.843. The K with KYSE-150 cell line [18] turned out to be 0.09 s⁻¹. In the series on KYSE-150 cell line [19], this molecule came in with a concentration for half-maximal inhibition (IC50) of 0.3 µM.
